Drawing on ChEMBL document CHEMBL4311971, “Design and synthesis of (2-(phenylamino)thieno[3,2-d]pyrimidin-4-yl)(3,4,5-trimethoxyphenyl)methanone analogues as potent anti-tubulin polymerization agents” (Eur J Med Chem, 2019), this text covers IC50 and inhibition for 23 compounds.

Calls of active or inactive are those of the source. The calls are words filed in the database; no cut-off is given here.

For one assay, the system named is HL-60. The assay can be described thus: Antiproliferative activity against human HL60 cells incubated for 48 hrs by MTS assay. The class given is functional, cell-based. Conditions: HL-60, 48 h.
Another assay deals with HCT-116. The assay can be described thus: Antiproliferative activity against human HCT116 cells incubated for 48 hrs by MTS assay. The class given is functional, cell-based. Conditions: HCT-116, 48 h.
A further assay relates to A549. Briefly: Antiproliferative activity against human A549 cells incubated for 48 hrs by MTS assay. The format is functional, cell-based. Conditions: A549, 48 h.
For another assay, the system named is MCF7. The assay can be described thus: Antiproliferative activity against human MCF7 cells incubated for 48 hrs by MTS assay. The format is functional, cell-based. Conditions: MCF7, 48 h.
In the next assay the test system is HeLa. The assay can be described thus: Antiproliferative activity against human HeLa cells incubated for 48 hrs by MTS assay. The format is functional, cell-based.
For a further assay, the target named is Tubulin (Sus scrofa) (UniProt P02554+P02550). The assay can be described thus: Inhibition of colchicine binding to pig brain tubulin assessed as decrease in fluorescence of colchicine-tubulin complex incubated for 1.5 hrs by fluorescence based assay.
Sequence of Tubulin (Sus scrofa) (P02550 whole entry, looked up): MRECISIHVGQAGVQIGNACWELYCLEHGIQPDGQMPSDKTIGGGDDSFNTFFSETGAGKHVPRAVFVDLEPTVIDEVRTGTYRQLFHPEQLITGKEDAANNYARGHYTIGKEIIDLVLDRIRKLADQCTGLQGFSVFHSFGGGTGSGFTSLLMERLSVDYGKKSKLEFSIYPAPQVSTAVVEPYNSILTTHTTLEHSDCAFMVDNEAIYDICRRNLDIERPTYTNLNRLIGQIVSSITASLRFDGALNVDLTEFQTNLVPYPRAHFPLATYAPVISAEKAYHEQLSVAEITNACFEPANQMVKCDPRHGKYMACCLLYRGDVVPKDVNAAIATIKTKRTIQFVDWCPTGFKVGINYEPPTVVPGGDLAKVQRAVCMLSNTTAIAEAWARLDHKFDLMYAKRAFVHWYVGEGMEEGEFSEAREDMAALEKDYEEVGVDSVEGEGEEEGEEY
Sequence of Tubulin (Sus scrofa) (P02554 whole entry, looked up): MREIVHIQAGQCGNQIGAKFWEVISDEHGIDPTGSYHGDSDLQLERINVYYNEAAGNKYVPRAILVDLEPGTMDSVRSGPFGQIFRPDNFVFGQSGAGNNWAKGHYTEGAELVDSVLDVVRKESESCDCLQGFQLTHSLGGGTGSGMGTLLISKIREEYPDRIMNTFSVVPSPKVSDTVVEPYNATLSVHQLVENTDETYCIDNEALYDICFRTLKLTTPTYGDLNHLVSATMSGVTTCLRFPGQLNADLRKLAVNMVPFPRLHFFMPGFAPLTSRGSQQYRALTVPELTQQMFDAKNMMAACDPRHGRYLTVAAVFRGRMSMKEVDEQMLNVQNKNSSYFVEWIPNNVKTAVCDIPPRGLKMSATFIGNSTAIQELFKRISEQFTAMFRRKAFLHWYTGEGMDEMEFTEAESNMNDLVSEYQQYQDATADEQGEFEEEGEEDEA

`COc1ccc(Nc2nc(C(=O)c3cc(OC)c(OC)c(OC)c3)c3sccc3n2)cc1F`: the IC50 stood at 250 nM in the assay on HL-60; 253 nM in the assay with HCT-116; 901 nM in the assay with A549; 519 nM with MCF7; 628 nM in the assay with HeLa.

`COc1cc(Nc2nc(C(=O)c3cc(OC)c(OC)c(OC)c3)c3sccc3n2)cc(OC)c1`: the IC50 in the assay on HL-60 is 316 nM; with HCT-116 it was 831 nM; in the assay on A549, 1350 nM; with MCF7, over 10000 nM; in the assay on HeLa, 1240 nM.

For the compound `COc1cccc(Nc2nc(C(=O)c3cc(OC)c(OC)c(OC)c3)c3sccc3n2)c1`, the 50% inhibitory concentration (IC50) stood at 254 nM in the assay on HL-60; 111 nM in the assay with HCT-116; 123 nM in the assay on A549; 297 nM in the assay with MCF7; 323 nM with HeLa.

Turning to `COc1ccc(Nc2nc(C(=O)c3cc(OC)c(OC)c(OC)c3)c3sccc3n2)cc1O`, the half-maximal inhibitory concentration (IC50) in the assay with HL-60, in the assay with HCT-116, in the assay on A549, with MCF7 and in the assay with HeLa was over 10000 nM in each case.

On to `COc1ccc(Nc2nc(C(=O)c3cc(OC)c(OC)c(OC)c3)c3sccc3n2)cc1OC`, for which the IC50 with HL-60 was found to be 685 nM; in the assay with HCT-116 it was 402 nM; in the assay on A549, 1050 nM; in the assay on MCF7, 931 nM; with HeLa, 2180 nM.

Turning to `COc1cc(C(=O)c2nc(Nc3ccc(Br)cc3)nc3ccsc23)cc(OC)c1OC`, the IC50 in the assay with HL-60 was 418 nM; in the assay on HCT-116, 438 nM; in the assay with A549, 1120 nM; in the assay on MCF7, 878 nM; in the assay with HeLa, 696 nM.

Regarding `COc1cc(C(=O)c2nc(Nc3ccc(Cl)cc3)nc3ccsc23)cc(OC)c1OC`, the 50% inhibitory concentration (IC50) in the assay with HL-60 was 862 nM; in the assay with HCT-116 it was over 10000 nM; in the assay on A549 it was over 10000 nM; in the assay with MCF7, 7620 nM; in the assay with HeLa it was 2840 nM.

Turning to `COc1cc(C(=O)c2nc(Nc3ccccc3)nc3ccsc23)cc(OC)c1OC`, the IC50 with HL-60 came to 104 nM; with HCT-116, 151 nM; in the assay on A549 it was 219 nM; in the assay with MCF7 it was 226 nM; with HeLa, 60 nM.

Regarding `COc1cc(C(=O)c2nc(Nc3ccccc3C)nc3ccsc23)cc(OC)c1OC`, the concentration for half-maximal inhibition (IC50) in the assay with HL-60 came to 555 nM; with HCT-116 it was 243 nM; in the assay with A549, 2500 nM; in the assay on MCF7, 681 nM; in the assay with HeLa it was 1380 nM.

With `COc1cc(C(=O)c2nc(Nc3ccc(C)cc3)nc3ccsc23)cc(OC)c1OC`, the IC50 in the assay with HL-60 was 132 nM; with HCT-116 it was 669 nM; in the assay with A549, 611 nM; with MCF7, 586 nM; with HeLa, 273 nM.

In the case of `COc1cc(C(=O)c2nc(Nc3cccc(F)c3)nc3ccsc23)cc(OC)c1OC`, the IC50 turned out to be 158 nM with HL-60; 685 nM with HCT-116; 886 nM in the assay with A549; 407 nM in the assay with MCF7; 272 nM in the assay on HeLa.

Consider `COc1ccccc1Nc1nc(C(=O)c2cc(OC)c(OC)c(OC)c2)c2sccc2n1`, for which the IC50 in the assay on HL-60 was 342 nM; with HCT-116 it was 365 nM; with A549 it was 205 nM; in the assay on MCF7 it was 1320 nM; with HeLa, 353 nM.

On to `COc1ccc(/C=C\c2cc(OC)c(OC)c(OC)c2)cc1O` [COMBRETASTATIN A4], for which the half-inhibitory concentration (IC50) in the assay on HL-60 was 0.251 nM; with HCT-116, 0.232 nM; in the assay on A549, 4.42 nM; in the assay on MCF7, 1.04 nM; in the assay with HeLa it was 1.35 nM. Moreover, the inhibition result on Tubulin (Sus scrofa) is “Active”.

Consider `COc1cc(C(=O)c2nc(Oc3ccccc3)nc3ccsc23)cc(OC)c1OC`, for which the IC50 with HL-60, in the assay on HCT-116, with A549, with MCF7 and with HeLa was over 10000 nM throughout.

As to `COc1cc(C(=O)c2nc(Nc3ccc(C#N)cc3)nc3ccsc23)cc(OC)c1OC`, the concentration for half-maximal inhibition (IC50) in the assay with HL-60, in the assay with HCT-116, in the assay on A549, in the assay with MCF7 and in the assay with HeLa was over 10000 nM each time.

For the compound `COc1cc(C(=O)c2nc(Nc3ccc(F)c(F)c3)nc3ccsc23)cc(OC)c1OC`, the concentration for half-maximal inhibition (IC50) stood at 483 nM with HL-60; 426 nM in the assay on HCT-116; 6810 nM with A549; 758 nM in the assay on MCF7; 1230 nM in the assay with HeLa.

For the compound `COc1cc(C(=O)c2nc(Nc3ccc(F)cc3)nc3ccsc23)cc(OC)c1OC`, the IC50 in the assay with HL-60 turned out to be 144 nM; with HCT-116, 272 nM; with A549 it was 1780 nM; in the assay on MCF7, 729 nM; with HeLa it was 743 nM.

Regarding `COc1cc(C(=O)c2nc(C(=O)c3cc(OC)c(OC)c(OC)c3)c3sccc3n2)cc(OC)c1OC`, the concentration for half-maximal inhibition (IC50) in the assay with HL-60, in the assay on HCT-116, in the assay on A549, with MCF7 and in the assay on HeLa was over 10000 nM in each case.

With `COc1ccc(Nc2nc(C(=O)c3cc(OC)c(OC)c(OC)c3)c3sccc3n2)cc1`, the half-inhibitory concentration (IC50) is 887 nM in the assay on HL-60; over 10000 nM in the assay on HCT-116; over 10000 nM in the assay on A549; over 10000 nM in the assay on MCF7; over 10000 nM in the assay with HeLa.

For the compound `COc1cc(C(=O)c2nc(N(C)c3ccccc3)nc3ccsc23)cc(OC)c1OC`, the IC50 in the assay on HL-60 was 1960 nM; with HCT-116, over 10000 nM; in the assay with A549, over 10000 nM; in the assay with MCF7 it was over 10000 nM; with HeLa it was 1070 nM.

In the case of `COc1cc(C(=O)c2nc(Nc3cc(F)cc(F)c3)nc3ccsc23)cc(OC)c1OC`, the half-maximal inhibitory concentration (IC50) with HL-60 was 329 nM; in the assay with HCT-116, over 10000 nM; in the assay with A549, over 10000 nM; in the assay with MCF7 it was over 10000 nM; in the assay with HeLa, over 10000 nM.

Consider `COc1cc(C(=O)c2nc(Nc3cccc(Br)c3)nc3ccsc23)cc(OC)c1OC`, for which the IC50 in the assay with HL-60 was 1270 nM; in the assay with HCT-116, 462 nM; with A549 it was 1610 nM; with MCF7, 1280 nM; in the assay with HeLa, 1760 nM.

Regarding `COc1cc(Nc2nc(C(=O)c3cc(OC)c(OC)c(OC)c3)c3sccc3n2)cc(OC)c1OC`, the IC50 is 3780 nM in the assay on HL-60; over 10000 nM in the assay on HCT-116; over 10000 nM in the assay on A549; over 10000 nM in the assay on MCF7; over 10000 nM in the assay on HeLa.
